Results from patent US20200239530A1, “COMPOUNDS AND METHODS OF MODULATING PROTEIN DEGRADATION” (Vividion Therapeutics, Inc., priority 2017, published 2020).
Like-named read-outs stand apart in the source and are kept apart here.

Tests used:
Experiment in all cases: Cysteine liganding, probe competition
Type in all cases: binding
UniProt Q7Z6J0 = target: T1, UniProt Q7Z6J0 (Homo sapiens, UniProt Q7Z6J0); details: for inhibition at 100 µM: read-out: percent_inhibition
T1 construct: 200 μL of lysate containing 5 mg/ml proteome was treated with 2 μL of 100× compound stock; endogenous in cells
T1 sequence (Q7Z6J0 1-888): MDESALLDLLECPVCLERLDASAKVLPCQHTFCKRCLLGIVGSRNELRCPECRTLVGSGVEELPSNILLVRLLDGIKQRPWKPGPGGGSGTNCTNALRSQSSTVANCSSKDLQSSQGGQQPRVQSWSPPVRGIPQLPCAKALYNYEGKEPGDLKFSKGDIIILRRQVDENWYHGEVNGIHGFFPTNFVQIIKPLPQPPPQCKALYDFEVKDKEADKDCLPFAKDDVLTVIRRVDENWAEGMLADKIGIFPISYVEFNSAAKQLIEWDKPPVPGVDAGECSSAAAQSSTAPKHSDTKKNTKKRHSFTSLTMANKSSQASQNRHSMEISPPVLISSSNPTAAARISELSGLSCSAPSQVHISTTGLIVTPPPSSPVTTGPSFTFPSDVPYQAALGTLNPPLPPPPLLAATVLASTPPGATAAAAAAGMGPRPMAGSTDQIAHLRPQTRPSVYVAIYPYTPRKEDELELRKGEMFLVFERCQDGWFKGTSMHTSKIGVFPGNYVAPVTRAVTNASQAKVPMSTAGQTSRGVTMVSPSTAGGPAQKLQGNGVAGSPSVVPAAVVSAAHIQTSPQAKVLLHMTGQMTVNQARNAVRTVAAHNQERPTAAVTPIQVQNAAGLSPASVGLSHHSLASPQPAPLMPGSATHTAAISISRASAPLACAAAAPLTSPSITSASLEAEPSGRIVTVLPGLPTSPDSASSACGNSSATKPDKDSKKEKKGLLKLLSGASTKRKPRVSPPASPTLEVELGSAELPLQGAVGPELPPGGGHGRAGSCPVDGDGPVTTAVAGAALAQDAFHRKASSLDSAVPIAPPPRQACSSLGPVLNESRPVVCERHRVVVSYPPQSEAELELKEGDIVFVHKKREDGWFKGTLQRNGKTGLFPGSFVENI
From the text: (§1) The following 96-well sample prep protocol was used for sample preparation.

UniProt O15151 = target: T2, UniProt O15151 (Homo sapiens, UniProt O15151); details: for inhibition at 500 µM: read-out: percent inhibition
T2 construct: Cells were resuspended in cold PBS on ice and sonicated with a probe sonicator to achieve lysis; endogenous in cells
T2 sequence (O15151 1-490): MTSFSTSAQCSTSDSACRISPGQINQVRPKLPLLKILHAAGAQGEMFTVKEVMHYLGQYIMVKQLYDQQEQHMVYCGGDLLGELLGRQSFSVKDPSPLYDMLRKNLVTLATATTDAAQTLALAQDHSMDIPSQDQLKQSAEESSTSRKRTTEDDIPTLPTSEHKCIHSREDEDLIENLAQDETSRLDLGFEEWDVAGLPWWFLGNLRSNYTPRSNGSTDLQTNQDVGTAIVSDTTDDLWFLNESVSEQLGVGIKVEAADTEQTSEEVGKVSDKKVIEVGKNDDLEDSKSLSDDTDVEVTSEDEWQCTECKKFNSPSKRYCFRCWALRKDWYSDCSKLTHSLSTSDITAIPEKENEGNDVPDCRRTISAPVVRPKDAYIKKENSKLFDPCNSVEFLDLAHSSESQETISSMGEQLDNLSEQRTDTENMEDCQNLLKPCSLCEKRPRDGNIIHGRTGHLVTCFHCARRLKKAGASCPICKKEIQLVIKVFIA
From the text: as §1

UniProt O94972 = target: T3, UniProt O94972 (Homo sapiens, UniProt O94972)
T3 construct: 200 μL of lysate containing 5 mg/ml proteome was treated with 2 μL of 100× compound stock; endogenous in cells
From the text: as §1

UniProt Q9NPC7 = target: T4, UniProt Q9NPC7 (Homo sapiens, UniProt Q9NPC7)
T4 construct: Cells were resuspended in cold PBS on ice and sonicated with a probe sonicator to achieve lysis; endogenous in cells
T4 sequence (Q9NPC7 1-610): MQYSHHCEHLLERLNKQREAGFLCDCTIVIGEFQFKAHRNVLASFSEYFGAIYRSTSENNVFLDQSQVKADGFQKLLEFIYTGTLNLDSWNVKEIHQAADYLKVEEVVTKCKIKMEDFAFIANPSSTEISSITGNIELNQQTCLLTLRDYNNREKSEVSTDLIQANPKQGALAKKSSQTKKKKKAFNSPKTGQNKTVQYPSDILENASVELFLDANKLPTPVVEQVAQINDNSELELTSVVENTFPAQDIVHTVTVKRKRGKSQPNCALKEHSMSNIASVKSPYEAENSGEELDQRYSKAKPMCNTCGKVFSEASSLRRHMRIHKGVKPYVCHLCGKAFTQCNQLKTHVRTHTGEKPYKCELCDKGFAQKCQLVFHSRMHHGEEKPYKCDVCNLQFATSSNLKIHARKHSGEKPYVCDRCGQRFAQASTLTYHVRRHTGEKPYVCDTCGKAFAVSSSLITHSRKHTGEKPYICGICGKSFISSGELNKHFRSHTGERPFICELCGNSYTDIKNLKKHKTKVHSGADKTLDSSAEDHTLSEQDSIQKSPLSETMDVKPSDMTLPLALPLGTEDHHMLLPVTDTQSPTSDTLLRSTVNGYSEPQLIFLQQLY
From the text: as §1

UniProt Q96JY6 = target: T5, UniProt Q96JY6 (Homo sapiens, UniProt Q96JY6)
T5 construct: 200 μL of lysate containing 5 mg/ml proteome was treated with 2 μL of 100× compound stock; endogenous in cells
T5 sequence (Q96JY6 1-352): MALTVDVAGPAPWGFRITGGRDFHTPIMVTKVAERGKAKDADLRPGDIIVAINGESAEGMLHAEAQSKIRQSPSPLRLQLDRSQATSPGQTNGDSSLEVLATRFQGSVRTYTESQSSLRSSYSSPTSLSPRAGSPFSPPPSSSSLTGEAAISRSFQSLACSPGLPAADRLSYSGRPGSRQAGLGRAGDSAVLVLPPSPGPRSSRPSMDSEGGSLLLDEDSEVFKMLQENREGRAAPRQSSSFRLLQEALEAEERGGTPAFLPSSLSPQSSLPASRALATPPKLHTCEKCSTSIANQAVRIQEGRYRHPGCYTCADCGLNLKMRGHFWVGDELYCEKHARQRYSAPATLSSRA
From the text: as §1

UniProt Q9BVG3 = target: T6, UniProt Q9BVG3 (Homo sapiens, UniProt Q9BVG3)
T6 construct: 200 μL of lysate containing 5 mg/ml proteome was treated with 2 μL of 100× compound stock; endogenous in cells
From the text: as §1

[1] = read-out: KB05_100 uM_percent_inhibition

T3 sequence (O94972 whole entry, change not shown): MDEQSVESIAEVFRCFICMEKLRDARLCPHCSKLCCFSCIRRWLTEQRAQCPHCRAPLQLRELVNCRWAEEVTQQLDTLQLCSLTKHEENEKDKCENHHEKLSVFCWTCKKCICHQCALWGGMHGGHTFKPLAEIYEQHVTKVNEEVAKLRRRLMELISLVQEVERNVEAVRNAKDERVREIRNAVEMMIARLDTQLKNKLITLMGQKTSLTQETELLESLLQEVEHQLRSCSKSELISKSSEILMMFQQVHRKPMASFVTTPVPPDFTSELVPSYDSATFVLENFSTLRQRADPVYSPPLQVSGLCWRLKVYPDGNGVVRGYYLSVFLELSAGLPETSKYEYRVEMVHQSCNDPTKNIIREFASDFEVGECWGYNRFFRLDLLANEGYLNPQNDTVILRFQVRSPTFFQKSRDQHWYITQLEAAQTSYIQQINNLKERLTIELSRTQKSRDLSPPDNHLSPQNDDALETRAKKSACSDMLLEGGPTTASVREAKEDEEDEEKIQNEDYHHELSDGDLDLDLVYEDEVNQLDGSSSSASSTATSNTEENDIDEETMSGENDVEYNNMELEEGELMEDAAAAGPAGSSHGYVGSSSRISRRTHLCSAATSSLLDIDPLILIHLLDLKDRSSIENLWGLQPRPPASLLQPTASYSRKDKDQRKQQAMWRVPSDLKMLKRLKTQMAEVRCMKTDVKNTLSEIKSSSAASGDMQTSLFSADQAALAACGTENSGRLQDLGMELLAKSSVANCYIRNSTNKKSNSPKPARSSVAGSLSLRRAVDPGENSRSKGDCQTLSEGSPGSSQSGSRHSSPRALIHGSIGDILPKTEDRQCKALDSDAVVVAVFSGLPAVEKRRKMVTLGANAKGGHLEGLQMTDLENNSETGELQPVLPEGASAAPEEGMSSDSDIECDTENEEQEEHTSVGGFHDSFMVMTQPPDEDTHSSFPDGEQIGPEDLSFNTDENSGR
T6 sequence (Q9BVG3 whole entry, change not shown): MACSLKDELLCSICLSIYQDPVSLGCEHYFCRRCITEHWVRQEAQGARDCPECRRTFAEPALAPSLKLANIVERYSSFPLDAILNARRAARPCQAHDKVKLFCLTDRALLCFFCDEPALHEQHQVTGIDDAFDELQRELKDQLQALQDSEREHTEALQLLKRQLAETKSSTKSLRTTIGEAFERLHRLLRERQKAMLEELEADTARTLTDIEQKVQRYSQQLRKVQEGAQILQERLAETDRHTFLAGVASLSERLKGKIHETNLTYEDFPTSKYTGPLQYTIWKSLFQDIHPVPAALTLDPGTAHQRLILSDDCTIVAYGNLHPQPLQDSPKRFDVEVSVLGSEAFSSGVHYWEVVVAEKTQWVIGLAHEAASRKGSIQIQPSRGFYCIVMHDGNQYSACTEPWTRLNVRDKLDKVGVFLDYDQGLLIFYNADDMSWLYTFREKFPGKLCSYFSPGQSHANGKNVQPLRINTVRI

percent_inhibition (UniProt Q7Z6J0; 100 uM)	percent inhibition (UniProt O15151; 500 uM)	inhibition at 100 µM (UniProt O94972; [1])	inhibition at 100 µM (UniProt Q9NPC7; 100 uM, read-out: percent inhibition)	inhibition at 500 µM (UniProt Q9NPC7; 500 uM, read-out: percent inhibition)	inhibition at 100 µM (UniProt Q96JY6; [1])	inhibition at 500 µM (UniProt Q96JY6; 500 uM, read-out: KB05_500 uM_percent_inhibition)	Structure (SMILES)	inhibition at 100 µM (UniProt Q7Z6J0)	inhibition at 500 µM (UniProt O15151)	inhibition at 100 µM (UniProt Q9BVG3; 100 uM, read-out: KB02_100 uM_percent_inhibition)	inhibition at 100 µM (UniProt Q96JY6; read-out: KB02_100 uM_percent_inhibition)	KB03_500 uM_percent_inhibition (UniProt Q9BVG3; 500 uM)	KB03_100 uM_percent_inhibition (UniProt O94972; 100 uM)	percent inhibition (UniProt Q9NPC7; 100 uM)
4%	41%	18%	1%	58%	33%	36%	C=CC(=O)N(c1ccccc1)c1ccc(Br)cc1 [KB05]	3%	55%	–	–	–	–	–
–	–	–	–	–	–	–	COc1ccc2c(c1)CCCN2C(=O)CCl [KB02]	42%	29%	1%	23%	–	–	–
–	–	–	–	–	–	–	O=C(CCl)Nc1cc(C(F)(F)F)cc(C(F)(F)F)c1 [KBO3]	–	–	–	–	59%	36%	30%
